What was measured:
PPRE luciferase = PPRE luciferase activation, transient transfection reporter assay (test (a)); format: cell-based, human; settings: positive in 184B5, 184B5/HER, HCA7, HCT116, SKBR3 and BT474 cells; 24 h treatment
Description: We turn now to criterion (a), that is activation of PPRE luciferase by at least 100%. PPRE-luciferase refers to a DNA construct containing the peroxisome proliferator activated receptor (PPAR) binding element joined to luciferase. Cells are transfected with PPRE-luciferase DNA. Ligands of PPAR induce luciferase activity. The ability of a test compound to stimulate PPRE-luciferase signifies that the test compound activates PPAR-mediated gene transcription. PPRE means peroxisome proliferator response element and the method by which PPRE-luciferase is constructed is described in Schoonjans, K., et al, J. Biol. Chem. 270, No. 33, 19269-19276 (Aug. 18, 1995). Use of PPRE-luciferase in a transient transfection to measure increase in promoter activity is disclosed in Subbaramaiah, K. et al, J. Biol. Chem. 270, No. 15, 12440-12448 (Apr. 13, […]).
For each well, 1.8 μg of PPRE3-tk-luciferase construct plasmid DNA (described in Forman, B. M., et al, Cell 83, 803 (1995)) plus 0.2 μg of pSV-β-galactosidase were introduced into cells using 8 μg of LipofectAMINE as per the manufacturer's instructions (Invitrogen, CA). After 7 h of incubation, the medium was replaced with basal medium. After transfection, cells were treated with test compound for 24 h. Reporter activities which include luciferase and β-galactosidase were measured in cellular extract 24 h later. Six wells were used for each of the conditions. Luciferase activity represents data that have been normalized with β-galactosidase.
The luciferase assay was performed as per the BD Pharmingen assay reagents. The Enhanced Luciferase Assay Kit provides a firefly luciferase substrate formulation (Substrates A and B) and cell lysis buffer intended for use in measuring luciferase expressed by transfected cells. Media from cell culture plates was removed and rinsed twice with phosphate buffered saline. Enough 1X cell lysis buffer was added to cover cells and incubated at room temperature for 15-20 min. Cells were dislodged by scraping and transferred to microcentrifuge tubes. […] 20-100 μl cell extract was placed into an assay cuvette. One automatic injector type luminometer is used for assay. Manually 100 μl of Substrate A was added to the assay cuvette and automatically 100 μl of Substrate B was injected. Measurements were performed using a luminometer, for a measurement time of 10 seconds.
The β-galactosidase assay was performed as follows:
50 μl of cell lysate from above was incubated with 50 μl of o-nitrophenyl-β-D-galactoside (ONPG; 4 mg/mL) in Z buffer, (Na2HPO4.7H2O (0.06M), NaH2PO4.H2O (0.04M), 1M KCl (0.01M), 1M MgSO4 (0.001M), β-mercaptoethanol (BME) (0.05M) pH 7.0). The reaction was stopped after sufficient yellow color has developed. The yellow color developed is measured at A420 […].

Nrf-2 = assay: Western and Northern blotting for expression of Nrf-2 (test (g)); format: cell-based, human; settings: positive in 184B5, 184B5/HER, HCA7, HCT116, SKBR3, BT474 and CaSki cells
Method: We turn now to criterion (g), i.e. at least 50% increase in expression of Nrf-2. […] 13, 2001).
Western blotting and Northern blotting techniques were used to evaluate the expression of Nrf-2. The expression of Nrf-2 was evaluated in HCA7, HCT116, SKBR3, CaSki, 184B5/HER, 184B5 and BT474 cells. 5×10^6cells were used to treat either vehicle alone or the test compound. The Western blotting analysis was performed as described above except anti-Nrf-2 antibody was used to probe the blot. The antibody was obtained from Santa Cruz Biotechnology, Inc. CA. Northern blotting for Nrf-2 was performed as described above and cDNA for Nrf-2 as described in Gong, P., et al., J.Biol Chem 20; 276:27018-27025 (2001) was used as a probe.

cyclin D1 = assay: Western blotting for expression of cyclin D1 (test (c)); format: cell-based, human; settings: positive in 184B5, 184B5/HER cells; 24 h; Western blot
Method: Cyclin D1 is a protein that is important in regulating cell proliferation and is described in Ortega, S., et al, Biochimica et Biophysica Acta 1602, 73-87, (2002), the whole of which is incorporated by reference. […] Effects on expression of cyclin D1 was investigated in 184B5, 184B5/HER, HCA7, HCT116, SKBR3 and BT474 cells. The expression was assessed in cells after treatment with test compound or vehicle using 5×10^4 cells for 24 hours. Western blotting technique was used as follows to assess the expression levels of cyclin D1 in cells treated with the test compound and compared to levels in cells treated with vehicle alone. Cell lysates were prepared by treating cells with lysis buffer as described above. […] The resolved proteins were transferred onto nitrocellulose sheets. The nitrocellulose membrane was then incubated with anti-cyclin D1 antiserum. Secondary antibody to IgG conjugated to horseradish peroxidase was used. The various antisera were purchased from Santa Cruz Biotechnology, Inc., CA. The blots were probed with the Renaissance Western blot detection system according to the manufacturer's instructions (PerkinElmer Life Sciences, Boston, Mass.).

EGFR = assay: Western blotting for expression of EGFR (test (b)); format: cell-based, human; settings: positive in 184B5, 184B5/HER, 1483, LNCaP, HeLa and CaSki cells; 24 h; Western blot
Description: (§1) We turn now to the criterion (b), that is at least 50% decrease in level of or 50% downregulation of expression of Class I family of receptors tyrosine kinase. The Class I family of receptors tyrosine kinase is described in Reese, M. D., et al Stem Cells 15, pages 1-8 (1997), the whole of which in incorporated herein by reference. Members of the family include HER-2/neu, HER-3, HER-4 and epidermal growth factor receptor (EGFR) and are single-chain membrane spanning proteins which have significant homology to one another including about 80% amino acid identity in the tyrosine kinase domain.
Epidermal growth factor receptor (EGFR) is a 170 kDA glycoprotein. […] After ligand binding, EGFR undergoes dimerization which is essential for activation of its enzymatic kinase activity. EGFR is thus autophospliorylated and transphosphorylated on tyrosine residues, and the phosphorylated residues become the site of association of effector proteins. Overexpressed EGFR is intimately involved in modulating the epidermal growth factor growth signal and is considered as likely to confer a growth advantage. This conclusion is supported by the observation that tumor growth in nude mice is inhibited by treatment with anti-EGFR antibodies and tumorigenicity in nude mice is inhibited through blockage of the tyrosine kinase activity of the receptor.
(§2) To evaluate the expression of Class I family of receptors tyrosine kinase (EGFR, HER-2/neu), Western blotting can be performed. Antibodies for EGFR and HER-2/neu can be obtained from Santa Cruz Biotechnology, Inc.
(§3) Expression of EGFR (performed in 184B5, 184B5/HER, 1483, LNCaP, HeLa and CaSki cells)and HER-2/neu (performed in 184B5/HER, SKBR3 and BT474 cells) was assessed in cells after treatment with test compound for 24 hours. 5×10^6 cells were used for the treatment. Western blotting technique was used to assess the expression levels in cells treated with the test compound compared to vehicle alone. Western blotting was carried out as follows:
(§4) Cell lysates were prepared by treating cells with lysis buffer (150 mM NaCl, 100 mM Tris (pH 8.0), 1% Tween 20, 50 mM diethyldithiocarbamate, 1 mM EDTA, 1 mM phenylmethylsulfonyl fluoride, 10 μg/ml aprotinin, 10 μg/ml trypsin inhibitor and 10 μg/ml leupeptin). Lysates were sonicated for 20 s on ice and centrifuged at 10,000×g for 10 min to sediment the particulate material. The protein concentration of the supernatant was measured by the method of Lowry, O. H., et al., J. Biol. Chem. 193, 265-275 (195 1). SDS/PAGE was performed under reducing conditions on 10% polyacrylamide gels as described by Laemmli, U.K., Nature (Lond.) 227, 680-685 (1970). The resolved proteins were transferred onto nitrocellulose sheets as detailed by Towbin, H. et al., Proc. Natl. Acad. Sci. USA 76, 4350-4354 (1979). The nitrocellulose membrane was then incubated with anti-EGFR antiserum or anti-HER-2/neu antiserum. Secondary antibody to IgG conjugated to horseradish peroxidase was used. The various antisera were purchased from Santa Cruz Biotechnology, Inc., CA. The blots were probed with the Renaissance Western blot detection system according to the manufacturer's instructions (PerkinElmer Life Sciences, Boston, Mass.).

[1] = Patient with cervical intraepithelial neoplasia, HPV 16 detected (Example VIII); format: in vivo, human; settings: person, 0.5% in a cream on sponge/cervical cap, six months
Description: A person presents to their gynecologist for evaluation. […] On biopsy, the patient is found to have cervical intraepithelial neoplasia. HPV 16 is detected. […] The SC-236 is discontinued with no recurrence of cervical intraepithelial neoplasia.

[2] = system: HPV16 oncoproteins E6 and E7; assay: Western and Northern blotting for HPV16 oncoproteins E6 and E7 (test (d)); format: cell-based, human papillomavirus; settings: positive in CaSki and SiHa cells
Method: We turn now to the criterion (d), that is at least 50% downregulation of expression of HPV16 oncoproteins E6 and E7.
Protein E6 and E7 which are expressed by HPV16 are believed to play a major role in carcinogenesis.
Western blotting and Northern blotting techniques were used to evaluate the expression of HPV E6 and E7 proteins. The cell lines used for the study were CaSKi and SiHa. The cells were treated with the test compound and cell lysate was obtained as described above and subjected to Western blotting analysis. The Western blotting analysis was performed as described above except anti-HPV 16 E7 antibody was used to probe the blot. The antibody was obtained from Santa Cruz Biotechnology, Inc. CA. For Northern blotting, total cellular RNA was isolated from cell monolayers using an RNA isolation kit from QIAGEN Inc. after treatment with the test compound. 10 μg of total cellular RNA per lane were electrophoresed in a formaldehyde-containing 1.2% agarose gel and transferred to nylon-supported membranes. After baking, membranes were prehybridized overnight in a solution containing 50% formamide, 5×sodium chloride-sodium phosphate-EDTA buffer (SSPE), 5×Denhardt's solution, 0.1% SDS and 100 μg/ml single-stranded salmon sperm DNA and then hybridized for 12 h at 42° C. with radiolabeled cDNA probes for human HPV16 E6 or E7 cDNAs and 18S rRNA. E6 and E7 (as described in Woodworth, C. D., Cancer Res. 16, 4397-4402 (2000)) and 18S rRNA probes were labeled with [^32P]-CTP by random priming. After hybridization, membranes were washed twice for 20 min at room temperature in 2×SSPE-0.1% SDS, twice for 20 min in the same solution at 55° C., and twice for 20 min in 0.1×SSPE-0.1% SDS at 55° C. Washed membranes were then subjected to autoradiography.

HER-2/neu = assay: Western blotting for expression of HER-2/neu (test (b)); format: cell-based, human; settings: positive in 184B5/HER, BT474 and SKBR3 cells; 24 h; Western blot
Description: as §1
HER-2/neu (erbB-2) gene product is a 185-kDA transmembrane receptor tyrosine kinase that is described in some detail in said Reese et al publication and overexpression thereof has been associated with tumor growth in several kinds of cancer.
as §2, §3, §4

[3] = Patient with atherosclerosis (Example VI); format: in vivo, human; settings: person one, 200 mg bid
Description: patient one presents with symptoms of chest discomfort on exertion and is diagnosed with atherosclerosis. […] The progression of the atherosclerosis stops.

## COc1ccc2c(c1)c(CC(=O)Nc1ccc(NC(C)=O)cc1)c(C)n2C(=O)c1ccc(Cl)cc1 [Indomethacin Analog 5]
PPRE luciferase
  Test (a) activation of PPRE luciferase by at least 100%: + (A plus sign in the table indicates a positive result, that is meeting the test for each cell line as indicated above as providing a positive result)
Nrf-2
  Test (g) at least 50% increase in expression of Nrf-2: + (A plus sign in the table indicates a positive result, that is meeting the test for each cell line as indicated above as providing a positive result)
Cyclin D1
  Test (c) at least 50% downregulation of expression of cyclin D1: + (A plus sign in the table indicates a positive result, that is meeting the test for each cell line as indicated above as providing a positive result)
EGFR
  Test (b) EGFR: at least 50% decrease in level of or 50% downregulation of expression: + (A plus sign in the table indicates a positive result, that is meeting the test for each cell line as indicated above as providing a positive result)

## COc1ccc(-n2nc(C(F)(F)F)cc2-c2ccc(Cl)cc2)cc1 [SC-560, 5-(4-chlorophenyl)-1-(4-methoxyphenyl)-3-(trifluoromethyl)-1H-pyrazole]
[1]
  repeat biopsy finding of cervical intraepithelial neoplasia: no evidence of cervical intraepithehal neoplasia
[2]
  Test (d) at least 50% downregulation of expression of HPV16 oncoproteins E6 and E7: + (A plus sign in the table indicates a positive result, that is meeting the test for each cell line as indicated above as providing a positive result)
HER-2/neu
  Test (b) HER-2/neu: at least 50% decrease in level of or 50% downregulation of expression: + (A plus sign in the table indicates a positive result, that is meeting the test for each cell line as indicated above as providing a positive result)
[3]
  progression of the atherosclerosis: stops
